From publication PMC8266232, “Design, synthesis, and analysis of antiproliferative and apoptosis-inducing activities of nitrile derivatives containing a benzofuran scaffold: EGFR inhibition assay and molecular modelling study” (Journal of Enzyme Inhibition and Medicinal Chemistry, 2021)
Like-named read-outs stand apart in the source and are kept apart here. Blank lines part the entries; values can stand above or below the compound they belong to.

What was measured:
[1] = tested on: PC3 cells (human prostate carcinoma); experiment: MTT antiproliferative assay, PC3; format: cell-based; details: PC-3, PC3, triplicate, read-out: In vitro cytotoxicity IC50, PC3
Experimental: (§1) The in vitro antiproliferative activity of all synthesised compounds was evaluated by an MTT assay according to the reported method[47]^,[48].
(§2) 2. Experimental procedure
(§3) 2.1. Antiproliferative screening
(§4) The in vitro antiproliferative activity of all synthesized compounds was evaluated by an MTT assay according to the reported method using five different human cancer cell lines, including […]
(§5) cervical carcinoma (HeLa), and human prostate cancer (PC-3). The cell lines were obtained from ATCC via a holding company for biological products and vaccines (VACSERA), Cairo, Egypt. The MTT assay is a colorimetric assay used for measuring the cellular growth based on the reduction of the yellow MTT to a purple formazan derivative by mitochondrial succinate dehydrogenase in viable cells. The color intensity of the formazan dye is correlated to the number of viable cells. The […]
(§6) IC50% values were calculated using dose response curves. The percentage of relative cell viability was calculated as (A570 of treated samples)/(A570 of untreated sample) × 100. The cytotoxic activity was defined as the concentration of the compound that caused 50% growth inhibition compared with the growth of an untreated cell. […]

[2] = tested on: HePG2, HCT-116, MCF-7, PC3, HeLa cell lines; experiment: MTT antiproliferative assay, IC50 range over the cancer cell line panel; format: cell-based; details: Homo sapiens
Experimental: as §1, §2, §3, §4, §5, §6

[3] = tested on: HePG2 cells (hepatocellular carcinoma); experiment: MTT antiproliferative assay, HePG2; format: cell-based, human; details: HePG2, triplicate, read-out: In vitro cytotoxicity IC50, HePG2
Experimental: as §1, §2, §3, §4, §5, §6

[4] = tested on: MCF-7 cells (human breast adenocarcinoma); experiment: MTT antiproliferative assay, MCF-7; format: cell-based; details: MCF-7, triplicate, read-out: In vitro cytotoxicity IC50, MCF-7
Experimental: as §1, §2, §3, §4, §5, §6

[5] = tested on: HeLa cells (cervical carcinoma); experiment: MTT antiproliferative assay, HeLa; format: cell-based, human; details: triplicate, read-out: In vitro cytotoxicity IC50, HeLa
Experimental: as §1, §2, §3, §4, §5, §6

[6] = tested on: HCT-116 cells (colorectal carcinoma); experiment: MTT antiproliferative assay, HCT-116; format: cell-based, human; details: HCT-116, triplicate, read-out: In vitro cytotoxicity IC50, HCT-116
Experimental: as §1, §2, §3, §4, §5, §6

[7] = tested on: WI38 normal cell; experiment: MTT cytotoxicity on normal fibroblast cells; format: cell-based; details: Homo sapiens, WI-38; MTT assay, non tumour normal cell WI38
[8] = molecular target: T1, EGFR TK (Homo sapiens, UniProt P00533); experiment: EGFR TK inhibition assay (luminescent, Kinase-Glo MAX); format: biochemical
T1 construct: add 20 μl of diluted EGFR enzyme and incubate at 30°C for 40
Experimental: 2.2. Epidermal growth factor inhibition assay
In vitro luminescent EGFR tyrosine kinase assay, using Kinase-Glo® MAX as a detection reagent using DP‐Glo™ reagent that measures the adenosine diphosphate (ADP) formed from a kinase reaction, were performed; this luminescent signal positively correlates with ADP amount and kinase activity. In 17 μl of distilled water, 6 μl of Kinase assay buffer and 1 μl ATP and 1 μl PTK substrate were mixed (master mixture). In every well, mix 20 μl of the master mixture and 5 μl of Inhibitor solution (Test Inhibitor) for positive control, and use 5 μl of the same solution without inhibitor (Inhibitor buffer) as the blank solution; add 20 μl of diluted EGFR enzyme and incubate at 30°C for 40

[9] = tested on: HCT-116 cells; experiment: Cell cycle analysis by PI flow cytometry, HCT-116; details: HCT-116, 10 µM, 24 h
Experimental: (§7) A comparison was made to the control (DMSO) and reference (gefitinib).
Cell cycle analysis and induction of apoptosis
Flow cytometry analysis of the cell cycle distribution
incubation period, the cells were collected, centrifuged, and ﬁxed with ice-cold ethanol (70%). The cells were subsequently treated with a buffer containing RNAse A and 0.1% Triton X-100, and stained
with PI. The cells were compared with the control, which was treated with DMSO. The DNA content
was measured by flow cytometry [50-52].

[10] = tested on: human caspase-3 (active) in HCT-116 cells; experiment: Caspase-3 ELISA in HCT-116 cells; format: cell-based
Experimental: Caspases are critical mediators of programmed cell death, that is, apoptosis. Caspase-3 is important in processes involving dissociation of the cell and the formation of the apoptotic element; therefore, it is regarded as one of the best biochemical hallmarks of apoptosis. […] The concentration of active caspase-3 was measured using the ELISA technique. In addition, the fluorescence density produced by the tested compounds is illustrated in Figure 4. […] The level of caspase-3 increased 5.7-fold compared to the control. Moreover, a considerable 7.3-fold increase in the caspase-3 level was detected following the treatment of the MCF-7 cells with compound 11. The bioluminescent intensities of caspase-3 indicated the apoptotic activity of compounds 3 and 11.
Afterward, measure luminescence using the
tested in triplicates.[36-38].
active caspase-3 [49]. […] The tested
Subsequently, 100 µL of an
incubated for 30 min at room temperature.
chromogen. […] The intensity of the resulting colored

[11] = tested on: HCT-116 cells; experiment: Annexin V-FITC/PI apoptosis assay, HCT-116; details: HCT-116, 10 µM, 24 h
Experimental: as §7
The cell line samples were analysed using FACSCalibur flow cytometer.
with PI. The cells were compared with the control, which was treated with DMSO.
Analysis of cellular apoptosis
concentration, respectively, and then incubated for 24 h. Following incubation, 1 –5 × 10^5 cells were
harvested and suspended in 500 µ L of the binding buffer, 5 µ L of annexin V-FITC, and 5 µL of PI.
annexin V-FITC conjugate is specially engineered to produce an enhanced fluorescence signal and
photostability. The annexin V-FITC kit included annexin V-FITC for detecting apoptosis as well as PI
for detecting necrosis. Thus, apoptosis and necrosis could be effectively differentiated. Detection and
analysis of the annexin V-FITC binding by flow cytometry was conducted using a FITC signal
detector (typically FL1). PI staining was evaluated by a phycoerythrin emission signal detector

[12] = Homo sapiens, HCT-116, MTT assay
[13] = four cell lines, without HCT-116, read-out: IC50 range against HePG2, MCF-7, PC3, and HeLa cell lines

T1 sequence (P00533 25-1210): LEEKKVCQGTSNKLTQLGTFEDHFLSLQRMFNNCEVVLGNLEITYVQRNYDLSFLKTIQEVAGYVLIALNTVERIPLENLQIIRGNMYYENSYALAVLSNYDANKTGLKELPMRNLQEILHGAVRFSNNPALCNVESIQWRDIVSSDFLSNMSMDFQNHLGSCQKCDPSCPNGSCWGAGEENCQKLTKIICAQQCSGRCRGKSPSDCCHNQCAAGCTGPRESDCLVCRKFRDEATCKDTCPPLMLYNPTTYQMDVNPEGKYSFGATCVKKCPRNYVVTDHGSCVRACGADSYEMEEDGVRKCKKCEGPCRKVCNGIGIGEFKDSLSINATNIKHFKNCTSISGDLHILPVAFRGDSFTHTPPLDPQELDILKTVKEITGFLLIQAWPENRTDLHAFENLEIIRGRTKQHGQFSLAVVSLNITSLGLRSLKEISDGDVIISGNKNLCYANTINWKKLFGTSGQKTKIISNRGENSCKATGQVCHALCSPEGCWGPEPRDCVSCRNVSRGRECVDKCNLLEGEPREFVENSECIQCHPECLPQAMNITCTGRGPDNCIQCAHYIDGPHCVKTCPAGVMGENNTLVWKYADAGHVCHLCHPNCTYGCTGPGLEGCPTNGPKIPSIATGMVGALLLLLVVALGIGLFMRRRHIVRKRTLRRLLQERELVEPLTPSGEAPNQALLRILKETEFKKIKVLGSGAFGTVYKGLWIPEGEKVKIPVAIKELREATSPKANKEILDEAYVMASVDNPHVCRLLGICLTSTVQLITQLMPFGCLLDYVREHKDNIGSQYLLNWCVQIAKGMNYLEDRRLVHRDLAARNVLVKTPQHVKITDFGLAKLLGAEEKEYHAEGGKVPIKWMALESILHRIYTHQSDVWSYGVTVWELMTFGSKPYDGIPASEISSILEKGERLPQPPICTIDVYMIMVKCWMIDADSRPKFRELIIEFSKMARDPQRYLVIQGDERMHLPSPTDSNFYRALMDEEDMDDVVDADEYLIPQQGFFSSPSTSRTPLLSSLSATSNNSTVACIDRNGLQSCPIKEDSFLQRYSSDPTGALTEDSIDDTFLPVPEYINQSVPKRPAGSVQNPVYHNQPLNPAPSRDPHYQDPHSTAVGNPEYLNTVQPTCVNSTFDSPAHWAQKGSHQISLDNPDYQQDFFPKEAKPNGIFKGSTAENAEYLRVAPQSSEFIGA

IC50 ([2]; HePG2, HCT-116, MCF-7, PC3, HeLa, read-out: IC50 range over all tested cancer cell lines): 5.5 to 11.2 µM
SMILES: CN(C)C/C=C/C(=O)Nc1cc2c(Nc3ccc(F)c(Cl)c3)ncnc2cc1O[C@H]1CCOC1 [Afatinib, reference compound]
IC50 [1]: 7.6 ± 0.6 µM
IC50 ([3]; Homo sapiens, HepG2, MTT assay): 5.53 µM
IC50 ([3]; MTT assay): 5.5 ± 0.24 µM
IC50 ([4]; Homo sapiens, MCF7, MTT assay): 7.23 µM
IC50 ([4]; MTT assay): 7.2 ± 0.5 µM
IC50 ([5]; Homo sapiens): 6.3 ± 0.69 µM
IC50 [6, 12]: 11.2 µM
IC50 ([6]; MTT assay): 11.2 ± 1.11 µM

IC50 [8]: 1.09 µM
melting point: 140 to 142 °C
SMILES: CC(=C(C#N)C#N)c1cc2ccccc2o1 [Compound 2, 2-(1-(benzofuran-2-yl)ethylidene)malononitrile]
IC50 [7]: 86.5 ± 4.7 µM
IC50 [1]: 26.8 ± 2.2 µM
IC50 ([3]; Homo sapiens, HepG2, MTT assay): 16.1 to 23.7 µM
IC50 ([3]; MTT assay): 16.1 ± 1.4 µM
IC50 ([4]; Homo sapiens, MCF7, MTT assay): 8.36 to 17.3 µM
IC50 ([4]; MTT assay): 8.36 ± 0.9 µM
IC50 ([5]; Homo sapiens): 39 ± 2.4 µM
IC50 [6, 12]: 8.81 to 13.8 µM
IC50 ([6]; MTT assay): 8.81 ± 0.7 µM

IC50 [8]: 0.93 µM
SMILES: CN(C)/C=C/C(=C(C#N)C#N)c1cc2ccccc2o1 [Compound 3, (E)-2-(1-(benzofuran-2-yl)-3-(dimethylamino)allylidene)malononitrile]
%Pre/G1 ([9]; control 0.39, '% Apoptosis' in Figure 5A): 13.06%
%G2/M ([9]; control 4.19): 12.62%
%S ([9]; control 25.21): 20.91%
%G0/G1 ([9]; control 70.21): 53.41%
IC50 [7]: 63.1 ± 3.43 µM
Caspase-3 Conc. ([10]; 24 h treatment, ELISA, control 63.51): 363.4 pg/mL
Caspase-3 level, Fold ([10]; compared to the control): 5.7 fold
IC50 [1]: 44.5 ± 3.5 µM
IC50 ([3]; Homo sapiens, HepG2, MTT assay): 40 ± 2.5 µM
IC50 ([4]; Homo sapiens, MCF7, MTT assay): 27.4 ± 1.8 µM
IC50 ([5]; Homo sapiens): 69 ± 3.9 µM
Late apoptosis ([11]; control 0.11): 5.79%
Necrosis ([11]; control 0.12): 1.32%
Early apoptosis ([11]; control 0.16): 5.95%
Apoptosis, Total ([11]; control 0.39): 13.06%
IC50 [6, 12]: 10.8 ± 1 µM

IC50 [2, 13]: 14.3 to 58.8 µM
melting point: 155 to 158 °C
SMILES: CCNc1nccc(-c2cc3ccccc3o2)c1C#N [Compound 4, 4-(Benzofuran-2-yl)-2-(ethylamino)nicotinonitrile]
IC50 [1]: 14.3 ± 1.3 µM
IC50 ([3]; Homo sapiens, HepG2, MTT assay): 58.8 ± 3.3 µM
IC50 ([4]; Homo sapiens, MCF7, MTT assay): 55 ± 3.2 µM
IC50 ([5]; Homo sapiens): 21 µM
IC50 [5]: 21.1 ± 1.6 µM
IC50 [6, 12]: 72.4 ± 3.8 µM

IC50 [2, 13]: 75.2 to 100 µM
melting point: 118 to 120 °C
SMILES: CCCNc1nccc(-c2cc3ccccc3o2)c1C#N [Compound 5, 4-(Benzofuran-2-yl)-2-(propylamino)nicotinonitrile]
IC50 [1]: 94.6 ± 4.9 µM
IC50 ([3]; Homo sapiens, HepG2, MTT assay): 83.6 ± 4.4 µM
IC50 ([4]; Homo sapiens, MCF7, MTT assay): > 100 µM
IC50 ([5]; Homo sapiens): 75.2 ± 4.8 µM
IC50 [6, 12]: 94.1 ± 5.1 µM

IC50 [2, 13]: 75.2 to 100 µM
melting point: 112 to 114 °C
SMILES: CCCCNc1nccc(-c2cc3ccccc3o2)c1C#N [Compound 6, 4-(Benzofuran-2-yl)-2-(butylamino)nicotinonitrile]
IC50 [7]: 204 ± 11.1 µM
IC50 [1]: > 100 µM
IC50 ([3]; Homo sapiens, HepG2, MTT assay): 79 ± 4.2 µM
IC50 ([4]; Homo sapiens, MCF7, MTT assay): 81.6 ± 4 µM
IC50 ([5]; Homo sapiens): 91.9 ± 5.1 µM
IC50 [6, 12]: 56.4 ± 3.2 µM
